Reference: ChEMBL document CHEMBL6153048, “Synthesis and pharmacological evaluation of natural product diphyllin derivatives against head and neck squamous cell carcinoma” (Eur J Med Chem, 2025)
Active and inactive are the calls of the source. The rule behind the calls is not given here.

How the values were obtained:
[1] = test system: CAL-27; assay: Antiproliferative activity against human CAL-27 cells assessed as inhibition rate at 0.1 uM incubated for 72 hrs by MTT assay relative to control; assay type: functional
[2] = test system: CAL-27; assay: Antiproliferative activity against human CAL-27 cells assessed as inhibition of cell communities at 10 uM treated for 11 days by plate clone formation assay; assay type: functional, cell-based; conditions: time 11.0 day
[3] = Half life in ICR mouse at 1 mg/kg, iv measured upto 24 hrs by LC-MS/MS analysis; assay type: ADME, organism-based; conditions: in vivo
[4] = species on record: Homo sapiens; assay: Inhibition of V-ATPase activity in lysosome of human CAL-27 cells using Lyso-Tracker Red as fluorescent probe assessed as decrease in fluorescence intensity at 0.5 uM incubated for 24 hrs by flow cytometry analysis
[5] = Cytotoxicity against human L02 cells incubated for 72 hrs by MTT assay; assay type: toxicity, cell-based
[6] = Plasma clearance in ICR mouse at 1 mg/kg, iv measured upto 24 hrs by LC-MS/MS analysis; assay type: ADME, organism-based
[7] = Oral bioavailability in ICR mouse at 3 mg/kg measured upto 24 hrs by LC-MS/MS analysis; assay type: ADME, organism-based; conditions: in vivo
[8] = test system: SCC-9; assay: Cytotoxicity against human SCC-9 cells incubated for 72 hrs by MTT assay; assay type: functional, cell-based; conditions: SCC-9, 72 h
[9] = test system: CAL-27; assay: Antitumor activity against human CAL-27 cells xenografted in BALB/c mouse model assessed as reduction in tumor weight at 0.6 mg/kg, iv treated four times a week for 30 days; assay type: functional; parameters: scale not given: the % may be the effect or the level left; conditions: time 30 day
[10] = test system: SNU-449; assay: Cytotoxicity against human SNU-449 cells incubated for 72 hrs by MTT assay; assay type: functional, cell-based; conditions: SNU-449, 72 h
[11] = Antiproliferative activity against human L02 cells assessed as inhibition rate at 0.1 uM incubated for 72 hrs by MTT assay relative to control; assay type: toxicity, cell-based
[12] = test system: MDA-MB-231; assay: Cytotoxicity against human MDA-MB-231 cells incubated for 72 hrs by MTT assay; assay type: functional, cell-based; conditions: MDA-MB-231, 72 h
[13] = test system: KYSE-510; assay: Cytotoxicity against human KYSE-510 cells incubated for 72 hrs by MTT assay; assay type: functional, cell-based; conditions: KYSE-510, 72 h
[14] = test system: CAL-27; assay: Induction of cell cycle arrest in human CAL-27 cells assessed as downregulation of cyclin D1 expression incubated for 24 hrs by Western blotting analysis; assay type: functional, cell-based; conditions: dose 1-1000 nM
[15] = test system: CAL-27; assay: Induction of apoptosis in human CAL-27 cells assessed as necrotic cells at 1 nM incubated for 72 hrs by Annexin V-FITC/propidium iodide staining based flow cytometry analysis (reference value: 0.03%); assay type: functional
[16] = test system: CAL-27; assay: Induction of cell cycle arrest in human CAL-27 cells assessed as downregulation of CDK4 expression incubated for 24 hrs by Western blotting analysis; assay type: functional, cell-based; conditions: dose 1-1000 nM
[17] = Cmax in ICR mouse at 3 mg/kg, po measured upto 24 hrs by LC-MS/MS analysis; assay type: ADME, organism-based; conditions: in vivo
[18] = Cmax in ICR mouse at 1 mg/kg, iv measured upto 24 hrs by LC-MS/MS analysis; assay type: ADME, organism-based; conditions: in vivo
[19] = AUC (0 to t) in ICR mouse at 1 mg/kg, iv measured upto 24 hrs by LC-MS/MS analysis; assay type: ADME, organism-based; conditions: in vivo
[20] = test system: PANC-1; assay: Cytotoxicity against human PANC-1 cells incubated for 72 hrs by MTT assay; assay type: functional, cell-based; conditions: PANC-1, 72 h
[21] = test system: CAL-27; assay: Effect on cell adhesion molecule in human CAL-27 cells assessed as regulation of gene expression at 1 nM incubated for 48 hrs by GSEA analysis; assay type: functional, cell-based
[22] = test system: SNU-182; assay: Cytotoxicity against human SNU-182 cells incubated for 72 hrs by MTT assay; assay type: functional, cell-based; conditions: SNU-182, 72 h
[23] = Cytotoxicity against human HN-6 cells incubated for 72 hrs by MTT assay; assay type: functional, cell-based; conditions: HN-6, 72 h
[24] = Antiproliferative activity against human WSU HN-30 cells assessed as inhibition rate at 0.1 uM incubated for 72 hrs by MTT assay relative to control; assay type: functional; conditions: WSU-HN30
[25] = test system: ASPC1; assay: Cytotoxicity against human ASPC1 cells incubated for 72 hrs by MTT assay; assay type: functional, cell-based; conditions: ASPC1, 72 h
[26] = test system: CAL-27; assay: Induction of apoptosis in human CAL-27 cells assessed as necrotic cells at 1000 nM incubated for 72 hrs by Annexin V-FITC/propidium iodide staining based flow cytometry analysis (reference value: 0.03%); assay type: functional
[27] = test system: CAL-27; assay: Cytotoxicity against human CAL-27 cells incubated for 72 hrs by MTT assay; assay type: functional, cell-based; conditions: CAL-27, 72 h
[28] = test system: SK-BR-3; assay: Cytotoxicity against human SK-BR-3 cells incubated for 72 hrs by MTT assay; assay type: functional, cell-based; conditions: SK-BR-3, 72 h
[29] = Antiproliferative activity against human HN-6 cells assessed as inhibition rate at 0.1 uM incubated for 72 hrs by MTT assay relative to control; assay type: functional
[30] = test system: K562; assay: Cytotoxicity against human K562 cells incubated for 72 hrs by MTT assay; assay type: functional, cell-based; conditions: K562, 72 h
[31] = test system: CAL-27; assay: Induction of apoptosis in human CAL-27 cells assessed as necrotic cells at 10 nM incubated for 72 hrs by Annexin V-FITC/propidium iodide staining based flow cytometry analysis (reference value: 0.03%); assay type: functional
[32] = test system: SCC-25; assay: Antiproliferative activity against human SCC-25 cells assessed as inhibition rate at 0.1 uM incubated for 72 hrs by MTT assay relative to control; assay type: functional
[33] = test system: Jurkat; assay: Cytotoxicity against human Jurkat cells incubated for 72 hrs by MTT assay; assay type: functional, cell-based
[34] = Cytotoxicity against human NCI-H322 cells incubated for 72 hrs by MTT assay; assay type: functional, cell-based; conditions: NCI-H322, 72 h
[35] = test system: CAL-27; assay: Inhibition of cell migration in human CAL-27 cells at 1 to 1000 nM incubated for 24 hrs by wound healing assay; assay type: functional, cell-based; conditions: dose 1-1000 nM
[36] = AUC (0 to t) in ICR mouse at 3 mg/kg, po measured upto 24 hrs by LC-MS/MS analysis; assay type: ADME, organism-based; conditions: in vivo
[37] = test system: SCC-9; assay: Antiproliferative activity against human SCC-9 cells assessed as inhibition rate at 0.1 uM incubated for 72 hrs by MTT assay relative to control; assay type: functional
[38] = test system: CAL-27; assay: Induction of apoptosis in human CAL-27 cells assessed as necrotic cells at 100 nM incubated for 72 hrs by Annexin V-FITC/propidium iodide staining based flow cytometry analysis (reference value: 0.03%); assay type: functional
[39] = test system: SCC-25; assay: Cytotoxicity against human SCC-25 cells incubated for 72 hrs by MTT assay; assay type: functional, cell-based; conditions: SCC-25, 72 h
[40] = test system: CAL-27; assay: Antitumor activity against human CAL-27 cells xenografted in BALB/c mouse model assessed as tumor volume change at 0.6 mg/kg, iv treated four times a week for 30 days; assay type: functional; conditions: CAL-27, 720 h, time 30 day, read-out: TGI
[41] = test system: HepG2; assay: Cytotoxicity against human HepG2 cells incubated for 72 hrs by MTT assay; assay type: functional, cell-based; conditions: HepG2, 72 h
[42] = Cytotoxicity against human […] incubated for 72 hrs by MTT assay; assay type: functional, cell-based; conditions: WSU-HN30, 72 h
[43] = species on record: Homo sapiens; assay: Inhibition of V-ATPase activity in lysosome of human CAL-27 cells using Lyso-Tracker Red as fluorescent probe assessed as decrease in fluorescence intensity at 0.25 uM incubated for 24 hrs by flow cytometry analysis

COc1cc2c(O[C@@H]3O[C@@H]4CO[C@@H](c5ccsc5)O[C@H]4[C@H](O)[C@H]3O)c3c(c(-c4ccc5c(c4)OCO5)c2cc1OC)C(=O)OC3
inhibition at 0.1 µM [1]: 81.5%
Activity [2]: Active
half-life [3]: 31.8 min
Activity [4]: Active
IC50 at 72 h [5]: > 10000 nM
clearance [6]: 31.6 mL/min/kg
bioavailability [7]: 20.9%
IC50 [8]: 5.5 nM
Activity [9]: 46%
IC50 [10]: 544 nM
inhibition at 72 h, 0.1 µM [11]: 23.5%
IC50 [12]: 48.3 nM
IC50 [13]: 10.9 nM
Activity [14]: Dose-dependent-effect; Showed Effective Suppression
Activity [15]: 0.11%
Activity [16]: Dose-dependent-effect; Showed Effective Suppression
Cmax [17]: 306 ng/mL
Cmax [18]: 609 ng/mL
AUC(0-t) at 24 h [19]: 541 ng·h/mL
IC50 [20]: 405 nM
Activity [21]: Active
IC50 [22]: 45.5 nM
IC50 [23]: 9.34 nM
inhibition at 0.1 µM [24]: 65.5%
IC50 [25]: 283 nM
Activity [26]: 9.61%
IC50 [27]: 4.37 nM
IC50 [28]: 2.4 nM
inhibition at 0.1 µM [29]: 69.4%
IC50 [30]: 2.8 nM
Activity [31]: 3%
inhibition at 0.1 µM [32]: 64.7%
IC50 [33]: 166 nM
IC50 [34]: 298 nM
inhibition [35]: Active
AUC(0-t) at 24 h [36]: 338 ng·h/mL
inhibition at 0.1 µM [37]: 76.3%
Activity [38]: 4.68%
IC50 [39]: 7.44 nM
inhibition in vivo at 0.6 mg/kg [40]: 23.3%
IC50 [41]: 20.7 nM
IC50 [42]: 77.8 nM
Activity [43]: Active

COc1cc2c(O)c3c(c(-c4ccc5c(c4)OCO5)c2cc1OC)C(=O)OC3 [DIPHYLLIN]
inhibition at 0.1 µM [1]: 13.7%
Activity [2]: Active
half-life [3]: 6.48 min
Activity [4]: inactive
IC50 at 72 h [5]: > 10000 nM
clearance [6]: 409 mL/min/kg
bioavailability [7]: 2.7%
IC50 [8]: 1350 nM
Activity [9]: 33.3%
IC50 [10]: > 10000 nM
inhibition at 72 h, 0.1 µM [11]: 7.61%
IC50 [12]: > 10000 nM
IC50 [13]: 2040 nM
Activity [14]: Dose-dependent-effect
Activity [15]: 0.14%
Activity [16]: Dose-dependent-effect
Cmax [17]: 11.9 ng/mL
Cmax [18]: 160 ng/mL
AUC(0-t) at 24 h [19]: 43.6 ng·h/mL
IC50 [20]: > 10000 nM
IC50 [22]: > 10000 nM
IC50 [23]: 2210 nM
inhibition at 0.1 µM [24]: 9.52%
IC50 [25]: > 10000 nM
Activity [26]: 0.09%
IC50 [27]: 2000 nM
IC50 [28]: > 10000 nM
inhibition at 0.1 µM [29]: 30.8%
IC50 [30]: 343 nM
Activity [31]: 0.07%
inhibition at 0.1 µM [32]: 23.3%
IC50 [33]: 1660 nM
IC50 [34]: > 10000 nM
inhibition [35]: Active
AUC(0-t) at 24 h [36]: 3.56 ng·h/mL
inhibition at 0.1 µM [37]: 16.6%
Activity [38]: 0.08%
IC50 [39]: 2390 nM
inhibition in vivo at 0.6 mg/kg [40]: 42.2%
IC50 [41]: > 10000 nM
IC50 [42]: 1370 nM
Activity [43]: inactive
